# Experimental data: patent US12139454B2, “Dimethylcyclobutanone compounds, dimethylcyclobutane compounds, and processes for preparing the same” (Shin-Etsu Chemical Co., Ltd., priority 2019, dated 2024)
# Columns and labels:
# Planococcus citri [1] = test: Field sticky-trap luring test with lures in a navel orange field; type: in vivo; settings: inferred from lures A and C with high contents versus lure B with low contents
# Excerpt: The mixture of cis-(3-isopropenyl-2,2-dimethylcyclobutyl)methyl acetate, trans-(3-isopropenyl-2,2-dimethylcyclobutyl)methyl acetate, and (3-isopropylidene-2,2-dimethylcyclobutyl)methyl acetate obtained as in Example 35 was separated by 10% silver nitrate silica gel column chromatography (hexane:ethyl acetate=100:1). After the separation, they were mixed in a weight ratio of 100:43:4, 100:5:1, and 100:96:96. The mixtures were loaded each on a rubber cap made of isoprene each in an amount of 200 μg of cis-(3-isopropenyl-2,2-dimethylcyclobutyl)methyl acetate to prepare Lures A, B and C shown in the Table 1 below.
# Lures A, B and C and the commercially available lure, Pherodis Planococcus citri (Koppert Biological Systems), were attached each to a sticky. Those and a sticky trap without a lure (blank) were placed in a navel orange field in Port Elizabeth, South Africa. Then, the number of lured and killed adult males of Planococcus citri (generic name: Citrus mealybug) in each trap was counted every other week. Each lure was changed every month.
# Planococcus citri [2] = settings: J. Econ. Entomol. 97, 361 (2004); cited from earlier work
SMILES,lure-inhibitory activity (surmised from the lure comparison) (Planococcus citri [1]),sex pheromone activity / effect on the attraction (Planococcus citri [2])
"C=C(C)[C@H]1C[C@H](COC(C)=O)C1(C)C (relative stereo) [trans-(3-isopropenyl-2,2-dimethylcyclobutyl)methyl acetate]",lure-inhibitory activity,–
"C=C(C)[C@@H]1C[C@H](COC(C)=O)C1(C)C [(1S,3S)-(3-isopropenyl-2,2-dimethylcyclobutyl) methyl acetate]",–,"not a sex pheromone substance, but does not disturb the attraction"
"CC(=O)OCC1CC(=C(C)C)C1(C)C (stereo not drawn) [(3-isopropylidene-2,2-dimethylcyclobutyl)methyl acetate]",lure-inhibitory activity,–
